This is an account of results in US9611248B2, “Chemical compounds” (Syngenta Participations AG, priority 2013, dated 2017).

The test concerns a variety of test species. As to the kind of experiment: Post-emergence herbicidal activity. To be noted: rate 1000 g/ha, evaluated after 13 days. On the set-up: key to ABUTH (Abutilon theophrasti) damage score / AMARE (Amaranthus retroflexus) damage score / ALOMY (Alopecurus myosuroides) damage score / ECHCG (Echinochloa crus-galli) damage score / ZEAMX (Zea mays) damage score / SOLNI (Solanum nigrum) damage score: 0 = no damage to plant, 5 = total damage to plant. The test is classed as in vivo. How it is done: Seeds of a variety of test species were sown in standard soil in pots. After 8 days cultivation (post-emergence) under controlled conditions in a glasshouse (at 24/16° C., day/night; 14 hours light; 65% humidity), the plants were sprayed with an aqueous spray solution derived from the formulation of the technical active ingredient in acetone/water (50:50) solution containing 0.5% Tween 20 (polyoxyethelyene sorbitan monolaurate, CAS RN 9005-64-5). The test plants were then grown in a glasshouse under controlled conditions (at 24/16° C., day/night; 14 hours light; 65% humidity) and watered twice daily. After 13 days, the test was evaluated (5=total damage to plant; 0=no damage to plant, NC=not captured).
Take `COC1=C(C)C(=O)N(c2cc(C)c(-c3cccc(C#N)c3)cn2)C1O` (stereo not drawn) [AD109]: the “ABUTH (Abutilon theophrasti) damage score” value (“ABUTH” for short) was 5, the “ALOMY (Alopecurus myosuroides) damage score” value (“ALOMY” for short) was 3, the “AMARE (Amaranthus retroflexus) damage score” value (shortened to “AMARE”) worked out at 5 and the “ECHCG (Echinochloa crus-galli) damage score” value (“ECHCG” below) was 5. The “SETFA (Setaria faberi) damage score” value is 5 and the “ZEAMX (Zea mays) damage score” value came to 1.
On to `CC1=C(Cl)C(O)N(c2cc(C(C)(C)C)ccn2)C1=O` (stereo not drawn) [AA44], for which the “ABUTH” value came to 1, the “ALOMY” value is 1, the “AMARE” value is reported as 3 and the “ECHCG” value came out at 1. The “SETFA (Setaria faberi) damage score” value is 2 and the “ZEAMX (Zea mays) damage score” value amounted to 1.
As to `COC1=C(C)C(=O)N(c2cc(C)c(S(=O)(=O)NC(C)C)cn2)C1O` (stereo not drawn) [AD95], the “ABUTH” value came to 5, the “ALOMY” value worked out at 4, the “AMARE” value stood at 5 and the “ECHCG” value was determined as 4. The “SETFA (Setaria faberi) damage score” value is listed as 5 and the “ZEAMX (Zea mays) damage score” value came out at 0.
For `COC1=C(C)C(=O)N(c2cc(C(C)(C)F)c(Cl)nn2)C1O` (stereo not drawn) [BD8], the “ABUTH” value came out at 5, the “ALOMY” value came out at 4, the “AMARE” value was 5 and the “ECHCG” value was 5. Moreover, the “SETFA (Setaria faberi) damage score” value is 5 and the “ZEAMX (Zea mays) damage score” value is listed as 2.
On to `COC1=C(C)C(=O)N(c2cc(C)c(-c3ccc([N+](=O)[O-])cc3)cn2)C1O` (stereo not drawn) [AD116], for which the “ABUTH” value was found to be 2, the “ALOMY” value is given as 0, the “AMARE” value came to 5 and the “ECHCG” value came out at 0. Also, the “SETFA (Setaria faberi) damage score” value was determined as 1 and the “ZEAMX (Zea mays) damage score” value is listed as 1.
For the compound `COC1=C(C)C(=O)N(c2cc(C)c(S(=O)(=O)NC(C)(C)C)cn2)C1O` (stereo not drawn) [AD94], the “ABUTH” value was 1, the “ALOMY” value turned out to be 1, the “AMARE” value amounted to 0 and the “ECHCG” value came out at 1. Also, the “SETFA (Setaria faberi) damage score” value was 1 and the “ZEAMX (Zea mays) damage score” value is listed as 0.
As for `COC1=C(C)C(=O)N(c2cc(C(F)(F)F)c(I)cn2)C1O` (stereo not drawn) [AD51], the “ABUTH” value is reported as 5, the “ALOMY” value is 4, the “AMARE” value turned out to be 5 and the “ECHCG” value was found to be 5. Besides, the “SETFA (Setaria faberi) damage score” value was 5 and the “ZEAMX (Zea mays) damage score” value is given as 1.
As to `COC1=C(C)C(=O)N(c2cc(C(F)(F)F)c(C#C[Si](C)(C)C)cn2)C1O` (stereo not drawn) [AD15, 2-hydroxy-3-methoxy-4-methyl-1-[4-(trifluoromethyl)-5-(2-trimethylsilylethynyl)-2-pyridyl]-2H-pyrrol-5-one], the “ABUTH” value came out at 3, the “ALOMY” value is 3, the “AMARE” value stood at 5 and the “ECHCG” value was found to be 4. Further, the “SETFA (Setaria faberi) damage score” value turned out to be 5 and the “ZEAMX (Zea mays) damage score” value was determined as 2.
On to `COC1=C(C)C(=O)N(c2cc(C)c(-c3ccccc3)cn2)C1O` (stereo not drawn) [AD63], for which the “ABUTH” value came out at 5, the “ALOMY” value is 3, the “AMARE” value came out at 5 and the “ECHCG” value was 3. Further, the “SETFA (Setaria faberi) damage score” value was 5 and the “ZEAMX (Zea mays) damage score” value is recorded as 1.
With `COC1=C(C)C(=O)N(c2cc(C(C)(C)CCl)ccn2)C1O` (stereo not drawn) [AD52], the “ABUTH” value was 5, the “ALOMY” value came out at 5, the “AMARE” value is 4 and the “ECHCG” value was found to be 5. The “SETFA (Setaria faberi) damage score” value stood at 5 and the “ZEAMX (Zea mays) damage score” value is 1.
Regarding `CC1=C(Cl)C(O)N(c2nccc(C(F)(F)F)c2F)C1=O` (stereo not drawn) [AA4], the “ABUTH” value was 1, the “ALOMY” value is on record as 1, the “AMARE” value stood at 1 and the “ECHCG” value is recorded as 0. Also, the “SETFA (Setaria faberi) damage score” value came out at 1 and the “ZEAMX (Zea mays) damage score” value worked out at 2.
For `CCc1cc(N2C(=O)C(C)=C(Cl)C2O)ncc1Br` (stereo not drawn) [AA50], the “ABUTH” value was found to be 3, the “ALOMY” value was 2, the “AMARE” value turned out to be 2 and the “ECHCG” value is given as 3. For the same compound, the “SETFA (Setaria faberi) damage score” value was 3 and the “ZEAMX (Zea mays) damage score” value is listed as 1.
